Measured values published in patent publication US8530179B2, “Electrochemical methods of detecting cancer with 4-aminophenyl phosphate” (Ramot at Tel-Aviv University Ltd, priority 2007, dated 2013).

Tested on: HT-29 colon cancer cells
Test: Amperometric measurement of induced alkaline phosphatase activity in HT-29 cells on the electrochemical array chip (substrate p-APP, 220 mV)
Assay type: cell-based, human
Settings: for induced alkaline phosphatase enzymatic activity (amperometric current): exposed for 96 hours, substrate PAPP, 220 mV
Method: HT-29 human colon cancer cells were grown in DMEM medium in the presence of fetal bovine serum at 37° C. in 95% air, 5% CO2 for 3 days prior to butyrate treatment. Butyrate at different concentrations was added to the HT-29 cell cultures. Concentrations applied were: 0, 0.078, 0.156, 0.3125, 0.625, 1.25, 2.5, 5 and 10 mM. Optimal butyrate concentration, LC50 and viability were calculated accordingly. The measurements were performed in PBS with the intact cells and without additional treatment of the cancer cells such as lysis.
BA (Sigma, Israel) ranging between 0.08-10 mM were introduced to HT-29 colon cancer cells and incubated for 72 h for optimization. BA at a constant concentration of 2.5 mM was applied in all electrochemical experiments. BA derivatives, butyroylmethyl-diethyl phosphate, and pivaloyloxymethyl butyrate, were synthesized as described [Rephaeli A, Zhuk R, Nudelman A, 2000, Drug Develop. Res. Vol 50:379-391]. Butyroylmethyl-diethyl phosphate was solubilized in PBS and pivaloyloxymethyl butyrate in DMSO followed by dilution with medium to a final DMSO concentration of ≦0.1%. The prodrugs were then introduced to the cells at a constant concentration of 50 μM and incubated for 96 h at 37° C. in 95% air, 5% CO2 conditions. Following incubation with the differentiation agents, viable cells were counted by tripa blue exclusion and tested for viability and LC50 calculations. Prior to all electrochemical measurement, cells were centrifuged and diluted in PBS. All measurements were performed in PBS. The influence of BA, pivaloyloxymethyl butyrate and butyroylmethyl-diethyl phosphate were examined by measuring the enzymatic activity of alkaline phosphatase.
Amperometric enzyme measurements were performed with the electrochemical substrate, p-APP. The enzymatic reaction product, aminophenol (p-AP), is oxidized at the gold working electrode at 220 mV and the generated current was measured. Eight-channeled 100 nL volume electrochemical chambers were loaded with HT-29 cancer cells, that were treated with BA or its derivatives. Cells were placed into the electrochemical chambers and the substrate was added to 1 mg/ml final concentration at a total volume of 100 nL. The generated current was measured and the number of cells was counted under the microscope. The correlation between cell number and current density was analyzed.
HT-29 colon cancer cells were exposed for 96 hours to various differentiation therapy agents and the induced alkaline phosphatase activity was measured. […]
In order to further examine the sensitivity of the biochip, increasing numbers of HT-29 colon cancer cells were incubated with butyroylmethyl-diethyl phosphate for different lengths of time. The amount of endogenous alkaline phosphatase was measured using the biochip of the present invention.

CCCC(=O)OCOC(=O)C(C)(C)C [pivaloyloxymethyl butyrate]
induced alkaline phosphatase enzymatic activity (amperometric current) (50 μM): did not induce any enzyme activity

CCCC(=O)OCOP(=O)(OCC)OCC [butyroylmethyl-diethyl phosphate]
induced alkaline phosphatase enzymatic activity (amperometric current) (50 μM): induced enzymatic activity of alkaline phosphatase | effect on cancer cells (alkaline phosphatase current signal) versus incubation time (eight, seventy eight and ninety six hour treatment, increasing cell numbers): increased as incubation time increased

CCCC(=O)O [BA, Butyric acid]
induced alkaline phosphatase enzymatic activity (amperometric current) (2.5 mM): induced enzymatic activity of alkaline phosphatase
